Data: patent US20180028507A1, “3-CARBAMOYLPHENYL-4-CARBOXAMIDE AND ISOPHTALAMIDE DERIVATIVES AS INHIBITORS OF THE WNT SIGNALLING PATHWAY” (Bayer Pharma Aktiengesellschaft, priority 2015, published 2018)

Assays:
[1] = tested on: constitutive active colorectal cancer cell (CRC) Wnt pathway; assay: HCT116 TOPFlash cellular reporter assay (Super TopFlash vector, luciferase); assay type: cell-based; settings: Homo sapiens, HCT-116; HCT116 Super TopFlash reporter cells, 36 hours incubation, dilution series 50 μM to 15 nM, luciferase expression
Experimental: In order to discover and characterize small molecules which inhibit the constitutive active colorectal cancer cell (CRC) Wnt pathway, a cellular reporter assay was employed. The corresponding assay cell was generated by transfection of the colorectal cancer cell line HCT116 (ATCC, #CCL-247) with the Super TopFlash vector (Morin, Science 275, 1997, 1787-1790; Molenaar et al., Cell 86 (3), 1996, 391-399). The HCT116 cell line is cultivated at 37° C. and 5% CO2 in DMEM/F-12 (Life Technologies, #11320-074), supplemented with 2 mM glutamine, 20 mM HEPES, 1.4 mM pyruvate, 0.15% Na-bicarbonate and 10% foetal bovine serum (GIBCO, #10270), this cancer cell line is pathophysiological relevant since it carries a deletion of position S45 in the β-catenin gene, leading to constitutive active Wnt signaling. Stable transfectants were generated by cotransfection with pcDNA3 and selection of stable transfected cells with 1 mg/ml G418.
(§1) In preparation of the assay, the two cell lines were plated 24 hours before at 10000 cells per well of a 384 micro titre plate (MTP) in 30 μL growth medium. Selective inhibitory activity for small molecules on the mutated Wnt pathway was determined after parallel incubation of both (TOP and FOP) HCT116 reporter cell lines with a compound dilution series from 50 μM to 15 nM in steps of 3.16-fold dilutions in CAFTY buffer (130 mM NaCl, 5 mM KCl, 20 mM HEPES, 1 mM MgCl2, 5 mM NaHCO3, pH 7.4) containing 2 mM Ca^2+ and 0.01% BSA. The compounds were thereby serially prediluted in 100% DMSO and thereafter in addition 50 fold into the CAFTY compound dilution buffer (described above). From this dilution 10 μL were added to the cells in 30 μL growth medium and incubated for 36 hours at 37° C. and 5% CO2.

[2] = tested on: HCT116 cells cotransfected with the FOP control vector (non-functional TCF elements); assay: HCT116 FOPFlash control reporter assay (FOP control vector, luciferase); assay type: cell-based; settings: Homo sapiens, HCT-116, 36 hours incubation, dilution series 50 μM to 15 nM, luciferase expression
Experimental: In a parallel approach, HCT116 cells were cotransfected with the FOP control vector and pcDNA3. The FOP vector is identical to the TOP construct, but it contains instead of functional TCF elements a randomized, non-functional sequence. For this transfection a stable transfected cell line was generated as well.
as §1

Structure (SMILES) | IC50 [1] [nM] | IC50 [2] [nM]
Nc1ccc(CNC(=O)c2cc(C(=O)Nc3ccc(-c4ccccc4F)nc3)ccc2OC(F)(F)F)cn1 [Example 51, N^3-[(6-aminopyridin-3-yl)methyl]-N^1-[6-(2-fluorophenyl)pyridin-3-yl]-4-(trifluoromethoxy) isophthalamide] | 1800 | 14000
COc1ccc(NC(=O)c2ccc(-c3ccccc3)cc2)cc1C(=O)NCc1ccccn1 [Example 32, N-{4-methoxy-3-[(pyridin-2-ylmethyl)carbamoyl]phenyl} biphenyl-4-carboxamide] | 1330 | ≥ 50000
O=C(Nc1ccc(-c2ccccc2F)nc1)c1ccc(OC(F)(F)F)c(C(=O)Nc2cccnc2)c1 [Example 57, N^1-[6-(2-fluorophenyl)pyridin-3-yl]-N^3-(pyridin-3-yl)-4-(trifluoromethoxy) isophthalamide] | 2600 | 11000
O=C(Nc1ccc(-c2cccnc2)cn1)c1ccc(OC(F)(F)F)c(C(=O)NCc2cnccn2)c1 [Example 50, N^1-(3,3′-bipyridin-6-yl)-N^3-(pyrazin-2-ylmethyl)-4-(trifluoromethoxy) isophthalamide] | 1700 | ≥ 50000
Cc1ncccc1NC(=O)c1cc(C(=O)Nc2ccc(-c3ccccc3)cc2)ccc1OC(F)(F)F [Example 40, N^1-(biphenyl-4-yl)-N^3-(2-methylpyridin-3-yl)-4-(trifluoromethoxy) isophthalamide] | 2250 | ≥ 50000
Cc1cc(NC(=O)c2cc(C(=O)Nc3ccc(-c4ccccc4F)nc3)ccc2OC(F)(F)F)ccn1 [Example 59, N^1-[6-(2-fluorophenyl)pyridin-3-yl]-N^3-(2-methylpyridin-4-yl)-4-(trifluoromethoxy) isophthalamide] | 1700 | 5500
COc1ccc(C(=O)Nc2ccc(-c3ccccc3F)nc2)cc1C(=O)NCc1cccnc1 [Example 41, N^1-[6-(2-fluorophenyl)pyridin-3-yl]-4-methoxy-N^3-(pyridin-3-ylmethyl)isophthalamide] | 1600 | ≥ 50000
COc1ccc(C(=O)Nc2ccc(-c3ccccc3)cc2)cc1C(=O)NCc1ccccn1 [Example 39, N^1-(biphenyl-4-yl)-4-methoxy-N^3-(pyridin-2-ylmethyl)isophthalamide] | 3400 | ≥ 50000
COc1ccc(NC(=O)c2ccc(-c3ccccc3)cc2)cc1C(=O)NCc1cccnc1 [Example 37, N-{4-methoxy-3-[(pyridin-3-ylmethyl)carbamoyl]phenyl} biphenyl-4-carboxamide] | 1800 | 25000

The next compounds have a lower IC50 [1] than those just listed; values first:

IC50 [1] [nM] | IC50 [2] [nM] | Structure (SMILES)
900 | ≥ 50000 | COc1ccc(C(=O)Nc2ccc(-c3ccccc3)cc2)cc1C(=O)Nc1ccncc1Cl [Example 15, N^1-(biphenyl-4-yl)-N^3-(3-chloropyridin-4-yl)-4-methoxyisophthalamide]
815 | 12200 | COCCCN(C)C(=O)c1cc(NC(=O)c2ccc(-c3ccccc3)cc2)ccc1OC [Example 4, N-{4-methoxy-3-[(3-methoxypropyl)(methyl)carbamoyl]phenyl}biphenyl-4-carboxamide]
640 | ≥ 50000 | COc1ccc(C(=O)Nc2ccc(-c3ccccc3)cc2)cc1C(=O)NCc1cccnc1 [Example 16, N^1-(biphenyl-4-yl)-4-methoxy-N^3-(pyridin-3-ylmethyl)isophthalamide]
420 | 31500 | O=C(Nc1ccc(-c2cccnc2)cn1)c1ccc(OC(F)(F)F)c(C(=O)NCc2cccnc2)c1 [Example 30, N^1-(3,3′-bipyridin-6-yl)-N^3-(pyridin-3-ylmethyl)-4-(trifluoromethoxy)isophthalamide]
383 | 14400 | COc1ccc(NC(=O)c2ccc(-c3ccccc3)cc2)cc1C(=O)NCCCOC(C)C [Example 6, N-{3-[(3-isopropoxypropyl)carbamoyl]-4-methoxyphenyl}biphenyl-4-carboxamide]
243 | ≥ 50000 | COc1cnccc1NC(=O)c1cc(C(=O)Nc2ccc(-c3ccccc3)cc2)ccc1OC(F)(F)F [Example 23, N^1-(biphenyl-4-yl)-N^3-(3-methoxypyridin-4-yl)-4-(trifluoromethoxy)isophthalamide]
225 | ≥ 50000 | COc1cnccc1NC(=O)c1cc(C(=O)Nc2ccc(-c3ccccc3F)nc2)ccc1OC [Example 28, N^1-[6-(2-fluorophenyl)pyridin-3-yl]-4-methoxy-N^3-(3-methoxypyridin-4-yl)isophthalamide]
160 | 32500 | O=C(Nc1ccc(-c2ccccc2)cc1)c1ccc(OC(F)(F)F)c(C(=O)NCc2cccnc2)c1 [Example 21, N^1-(biphenyl-4-yl)-N^3-(pyridin-3-ylmethyl)-4-(trifluoromethoxy)isophthalamide]
149 | ≥ 50000 | COc1ccc(NC(=O)c2ccc(-c3ccccc3)cc2)cc1C(=O)Nc1ccncc1Cl [Example 9, N-{3-[(3-chloropyridin-4-yl)carbamoyl]-4-methoxyphenyl}biphenyl-4-carboxamide]
91.7 | 28000 | COc1ccc(NC(=O)c2ccc(-c3ccccc3)cc2)cc1C(=O)Nc1ccnc(C)c1 [Example 3, N-{4-methoxy-3-[(2-methylpyridin-4-yl)carbamoyl]phenyl}biphenyl-4-carboxamide]
